Here are results for two compounds from patent US9889115B2, “Fitness assay and associated methods” (priority 1998, dated 2018).

The subject of experiment [1] is HIV-1BAL. The experiment is described as follows: PHA-PBMC assay, p24 Gag protein production. Type of experiment: cell-based.
Experiment [2] relates to HIV. Briefly: influence of human protein binding on antiviral activity. Type of experiment: cell-based. The source says:
These failures have been ascribed, but not definitively proven, to be due to excessive binding to human plasma proteins, particularly serum albumin and AAG.

In experiment [3] the test system is multidrug-resistant HIV-1 clinical isolate, patient 6. Briefly: PHA-PBMC assay, p24 Gag protein production. Type of experiment: cell-based. To be noted: Human immunodeficiency virus 1; Patient/Isolate code 6; PHA-PBMC, p24. As for the experimental part:
(§1) The patient profiles are shown below in Table 2.
(§2) To determine protease inhibitory activity against multidrug resistant HIV, the IC50's were measured against a panel of clinically isolated mutant HIV isolates.
(§3) All drug sensitivities were performed in triplicate. In order to determine whether the HIV isolates were syncitium inducing (SI) or non-syncitium inducing (NSI), an aliquot of viral stock supernatant, containing 100 TCID50, was cultured with 1×10^5 MT-2 cells in a 12-well plate. Cultures were maintained for four weeks and were examined for syncytium formation twice a week.

Experiment [4] concerns HIV-1ERS104pre. Briefly: PHA-PBMC assay, p24 Gag protein production. Type of experiment: cell-based. The settings on record: Human immunodeficiency virus 1; HIV-1ERS104pre, SI; PHA-PBMC, p24. As for the experimental part:
as §1, §2, §3

For experiment [5], the system named is multidrug-resistant HIV-1 clinical isolate, patient 7. Briefly: PHA-PBMC assay, p24 Gag protein production. It counts as cell-based. The settings on record: Human immunodeficiency virus 1; Patient/Isolate code 7; PHA-PBMC, p24. The method, then: as §1, §2, §3
Experiment [6] has as its system multidrug-resistant HIV-1 clinical isolate, patient 1. The experiment is described as follows: PHA-PBMC assay, p24 Gag protein production. It counts as cell-based. To be noted: Human immunodeficiency virus 1; Patient/Isolate code 1; PHA-PBMC, p24. The method, then:
as §1, §2, §3

Experiment [7] has as its system multidrug-resistant HIV-1 clinical isolate, patient 4. The experiment is described as follows: PHA-PBMC assay, p24 Gag protein production. It counts as cell-based. The settings on record: Human immunodeficiency virus 1; Patient/Isolate code 4; PHA-PBMC, p24. The method, then: as §1, §2, §3
Experiment [8] relates to multidrug-resistant HIV-1 clinical isolate, patient 3. The experiment is described as follows: PHA-PBMC assay, p24 Gag protein production. Type of experiment: cell-based. To be noted: Human immunodeficiency virus 1; Patient/Isolate code 3; PHA-PBMC, p24. The method, then:
as §1, §2, §3

Experiment [9] has as its system multidrug-resistant HIV-1 clinical isolate, patient 2. Briefly: PHA-PBMC assay, p24 Gag protein production. Type of experiment: cell-based. The settings on record: Human immunodeficiency virus 1; Patient/Isolate code 2; PHA-PBMC, p24. As for the experimental part:
as §1, §2, §3

Experiment [10] concerns multidrug-resistant HIV-1 clinical isolate, patient 8. The experiment is described as follows: PHA-PBMC assay, p24 Gag protein production. Type of experiment: cell-based. To be noted: Human immunodeficiency virus 1; Patient/Isolate code 8; PHA-PBMC, p24. The method, then: as §1, §2, §3
The subject of experiment [11] is multidrug-resistant HIV-1 clinical isolate, patient 5. The experiment is described as follows: PHA-PBMC assay, p24 Gag protein production. To be noted: Human immunodeficiency virus 1; Patient/Isolate code 5; PHA-PBMC, p24. Type of experiment: cell-based. The method, then: as §1, §2, §3
Experiment [12] relates to HIV-1LAI. The experiment is described as follows: PHA-PBMC assay, p24 Gag protein production. To be noted: HIV-1LAI. Type of experiment: cell-based.
Experiment [13] relates to HIV-1LAI. The experiment is described as follows: MT-2 cells, MTT assay. Type of experiment: cell-based. To be noted: HIV-1LAI; MT-2/MTT, day 7. The method, then:
All drug sensitivities were performed in triplicate. […] The IC50's were determined using the MTT assay on day 7 of culture. All sensitivities were determined in […].
In general terms: Tetrazolium dyes change colour on reduction, which living cells bring about.

Experiment [14] concerns the target T1, wild-type HIV-1 (WT) protease (Human immunodeficiency virus type 1 group M subtype B, UniProt P04585).
T1 construct: the proteases of wild-type HIV-1 (WT)
The experiment is described as follows: continuous fluorogenic HIV protease assay. It counts as biochemical. The settings on record: WT (Table 7). As for the experimental part: This example describes the protocol for the sensitive continuous fluorogenic assay for HIV protease of the present invention and its application. […] The inhibition constant for wild-type HIV-1, Kimnt/Kiwt ratio, and vitality were measured.
The reaction was initiated by the addition of 5 μl of substrate stock solution in water. […] The initial rate of hydrolysis was calculated by second degree polynomial fit using SLM AB2 2.0 operating software.
For inhibition studies, inhibitors were prepared as stock solutions at different concentrations in dimethylsulfoxide. […] The reaction was initiated by the addition of 5 μl of substrate stock solution in water. For data analysis, the mathematical model for tight-binding inhibitors was used.

As to `CC(C)CN(C[C@@H](O)[C@H](Cc1ccccc1)NC(=O)O[C@H]1CCOC1)S(=O)(=O)c1ccc(N)cc1` [AMV, Amprenavir], the half-inhibitory concentration (IC50) (as a rule, the midpoint of a concentration-inhibition curve) in experiment [1] (Human immunodeficiency virus 1, HIV-1BAL, NSI, PHA-PBMC, p24 (Table 3)) was 14 nM; in experiment [2] (Human immunodeficiency virus 1, (−), no added protein), 29 nM; in experiment [2] (Human immunodeficiency virus 1, Alb: human serum albumin (HAS, 300 μM)), 21 nM; in [2] (Human immunodeficiency virus 1, human alpha acid glycoprotein (AAG, 10 μM)) it was 180 nM; in experiment [3], 110 nM; in [4], 21 nM. For the same compound, the half-maximal inhibitory concentration (IC50) stood at 420 nM in [5]; 290 nM in experiment [6]; 400 nM in experiment [7]; 330 nM in experiment [8]; 240 nM in experiment [9]; 220 nM in experiment [10]. The IC50 in experiment [11] was 280 nM; in experiment [12] (Human immunodeficiency virus 1, SI, PHA-PBMC, p24 (Table 3)) it was 19 nM. In addition, the “fold of IC50 relative to (−)” value in experiment [2] ((−), no added protein) is 1 ×; in experiment [2] (Alb: human serum albumin (HAS, 300 μM)), 1 ×; in experiment [2] (human alpha acid glycoprotein (AAG, 10 μM)), 6 ×.

Turning to `CC(C)CN(C[C@@H](O)[C@H](Cc1ccccc1)NC(=O)O[C@H]1CO[C@H]2OCC[C@H]21)S(=O)(=O)c1ccc(CN)cc1` [Compound 35], the half-maximal inhibitory concentration (IC50) stood at 13 nM in experiment [1] (HIV-1Ba-L, PBMC/p24, day 7 (Table 8)); 28 nM in experiment [13]; 20 nM in experiment [12] (PBMC/p24, day 7 (Table 8)). Moreover, the KI-wt/KI-mut in experiment [14] is 1. Also, affinity in [14] was put at a Ki of 0.081 nM.
